Laboratory results from patent US6605628B1, “Method of using 5-(arysulfonyl)-, 5-(arylsulfanyl)-and 5-(arylsulfanyl)thiazolidine-2,4-diones for inhibition of farnesyl-protein transferase” (Wyeth Holdings Corporation, priority 2001, dated 2003).

Assays:
FPTase [1] = biological target: T1, FPTase (Homo sapiens, UniProt P49354+P49356); assay: in vitro FTase Inhibition Assay, H-Ras used as substrate for farnesylation; type: biochemical; details: Table I, read-out: IC50 H-Ras*
Procedure: (§1) Enzyme test procedure: FPTase inhibition in vitro assay was performed according to James, G. L., Brown, M. S., and Goldstein, J. L., Methods in Enzymology, 1995, 255, 38-46; and Garcia, M. A., et al., J. Biol. Chem., 1993, 268, 18415-18420.
(§2) Materials—Purified FPTase (Moomaw, J. F. and Casey, P. J., J. Biol. Chem., 1992, 267, 17438-17443), purified His6-Ras, inhibitor compounds at 10 mg/ml or 10 mM in 100% DMSO, ^3H-FPP (50,000 dpm/pmol) Amersham, TCA/SDS (6%/2%), TCA (6%), Glass fiber filters ([…]), vacuum manifold or 96 well filtration plates.
(§3) Methods—1. Dilute FPTase inhibitors from stock solutions to 2.5× in 2.5% DMSO, 10 mM DTT, 0.5% octyl-B-glucoside. 2. Solution #1 is added to FPTase reaction in a volume of […]. 3. Standard reaction mix, […], contains 50 mM Tris (7.5), 10 mM ZnCl2, 3 mM MgCl2, 20 mM KCl, 5 mM DTT, 0.2% octyl-B-glucoside, 1% DMSO, […] His6-Ras, 10 ng FPTase, and various concentrations of FPTase inhibitors. 4. Incubate for 30-90 min at 25° C. 5. Stop reactions with TCA/SDS (6%/2%), hold at 4° C. for 45-60 min. 6. Filter by manifold or 96 well plate, wash filter 3-5× with TCA (6%). 7. Add scintillant to filters, measure ^3H-FPP incorporation into Ras protein.
(§4) Analysis of Results—Percent inhibition by test compounds is determined by the following:
(§5) (cpm from precipitated Ras with test compounds)−(background cpm)×100=% inhibition.
(§6) (cpm from precipitated Ras without test compounds)−(background cpm)

FPTase [2] = biological target: T1, FPTase; assay: in vitro FTase Inhibition Assay, K-Ras used as substrate for farnesylation; type: biochemical; details: Table I
Procedure: as §1, §2, §3, §4, §5, §6

IC50 (FPTase [1]) [nM] | IC50 (FPTase [2]) [nM] | SMILES
17 to 30 | 40 to 1000 | COc1ccc(S(=O)(=O)C2(CCCC#Cc3ccc(Cl)cc3C)SC(=O)NC2=O)cc1 (stereo not drawn) [Example 142, 5-[5-(4-Chloro-2-methylphenyl)pent-4-ynyl]-5-(4-methoxybenzene-sulfonyl)-thiazolidine-2,4-dione]
30 | 850 | COc1ccc(S(=O)(=O)C2(CCCC#Cc3ccc(Br)cc3C)SC(=O)NC2=O)cc1 (stereo not drawn) [Example 143, 5-[5-(4-Bromo-2-methy-phenyl)pent-4-ynyl]-5-(4-methoxybenzene-sulfonyl)-thiazolidine-2,4-dione]
1200 to 1700 | 5600 to 10000 | COc1ccc(S(=O)(=O)C2(CCCC#Cc3ccc(NC(=O)OC(C)(C)C)cc3)SC(=O)NC2=O)cc1 (stereo not drawn) [Example 145, (4-{5-[5-(4-Methoxybenzensulfonyl)-2,4-dioxothiazolidin-5-yl)pent-1-ynyl}phenyl)carbamic Acid tert-Butyl Ester]
6.8 to 210 | 80 to 100 | Cc1ccc(C(=O)NC(C)(C)C)cc1C#CCCCC1(S(=O)(=O)c2ccc(I)cc2)SC(=O)NC1=O (stereo not drawn) [Example 147, N-tert-Butyl-3-{5-[5-(4-iodobenzenesulfonyl)-2,4-dioxothiazol-idin-5-yl]-pent-1-ynyl}-4-methyl-benzamide]
450 to 500 | 1000 to 4900 | COc1ccc(S(=O)(=O)C2(CCCC#Cc3ccc(NC(=O)OC(C)(C)C)cc3C)SC(=O)NC2=O)cc1 (stereo not drawn) [Example 149, (4-{5-[5-(4-Methoxybenzenesulfonyl)-2,4-dioxo-thiazolidin-5-yl)pent-1-ynyl}-3-methylphenyl)carbamic Acid tert-Butyl Ester]
530 to 700 | 210 to 1000 | COc1ccc(S(=O)(=O)C2(CCCC#Cc3ccc(NC(=O)OC(C)(C)C)cc3C(F)(F)F)SC(=O)NC2=O)cc1 (stereo not drawn) [Example 151, (4-{5-[5-(4-Methoxybenzenesulfonyl)-2,4-dioxothiazolidin-5-yl]pent-1-ynyl}-3-trifluoromethylphenyl)-carbamic Acid tert-Butyl Ester]
200 | 3300 | COc1ccc(S(=O)(=O)C2(CC#Cc3ccc(-c4ccccc4)cc3)SC(=O)NC2=O)cc1 (stereo not drawn) [Example 171, 5-(3-Biphenyl-4-yl-prop-2-ynyl)-5-(4-methoxybenzenesulfonyl)-thiazolidine-2,4-dione]
10 to 32 | 53 to 520 | COc1ccc(S(=O)(=O)C2(CCCC#Cc3cc(NC(=O)OCc4ccccc4)ccc3C)SC(=O)NC2=O)cc1 (stereo not drawn) [Example 175, (3-{5-[5-(4-Methoxybenzenesulfonyl)-2,4-dioxothiazolidin-5-yl]pent-1-ynyl}-4-methylphenyl)carbamic Acid Benzyl Ester]
3.2 to 32 | 30 to 320 | COc1ccc(S(=O)(=O)C2(CCCC#Cc3cc(NC(=O)OCc4ccc([N+](=O)[O-])cc4)ccc3C)SC(=O)NC2=O)cc1 (stereo not drawn) [Example 176, (3-{5-[5-(4-Methoxybenzenesulfonyl)-2,4-dioxothiazolidin-5-yl]pent-1-ynyl}-4-methylphenyl)carbamic Acid 4-Nitro- Benzyl Ester]
17 to 32 | 10 | COC(=O)Nc1ccc(C)c(C#CCCCC2(S(=O)(=O)c3ccc(OC)cc3)SC(=O)NC2=O)c1 (stereo not drawn) [Example 178, (3-{5-[5-(4-Methoxybenzenesulfonyl)-2,4-dioxothiazolidin-5-yl]pent-1-ynyl}-4-methylphenyl)carbamic Acid Methyl Ester]
2 to 32 | 5 to 70 | COc1ccc(S(=O)(=O)C2(CCCC#Cc3cc(NC(=O)OC(C)C)ccc3C)SC(=O)NC2=O)cc1 (stereo not drawn) [Example 179, (3-(5-[5-(4-Methoxybenzenesulfonyl)-2,4-dioxothiazolidin-5-yl]pent-1-ynyl}-4-methylphenyl)carbamic Acid Isopropyl Ester]
2 to 32 | 7 to 90 | COc1ccc(S(=O)(=O)C2(CCCC#Cc3cc(NC(=O)OCC(C)(C)C)ccc3C)SC(=O)NC2=O)cc1 (stereo not drawn) [Example 180, (3-(5-[5-(4-Methoxybenzenesulfonyl)-2,4-dixothiazolidin-5-yl]pent-1-ynyl}-4-methylphenyl)carbamic Acid Neopentyl Ester]
10 to 32 | 100 to 130 | CCCCOC(=O)Nc1ccc(C)c(C#CCCCC2(S(=O)(=O)c3ccc(OC)cc3)SC(=O)NC2=O)c1 (stereo not drawn) [Example 181, (3-(5-[5-(4-Methoxybenzenesulfonyl)-2,4-dioxothiazolidin-5-yl]pent-1-ynyl}-4-methylphenyl)carbamic Acid Butyl Ester]
5 to 10 | 32 to 56 | COc1ccc(S(=O)(=O)C2(CCCC#Cc3cc(NC(=O)OCC(C)C)ccc3C)SC(=O)NC2=O)cc1 (stereo not drawn) [Example 182, (3-{5-(5-(4-Methoxybenzenesulfonyl)-2 ,4-dioxothiazolidin-5-yl]pent-1-ynyl}-4-methylphenyl)carbamic Acid Isobutyl]
100 | 1200 | COc1ccc(S(=O)(=O)C2(CCCC#Cc3cc(NC(=O)Nc4ccc(Cl)cc4)ccc3C)SC(=O)NC2=O)cc1 (stereo not drawn) [Example 189, N-(4-Chlorophenyl)-N′-[3-(5-{5-[(4-methoxyphenyl)sulfonyl]-2,4-dioxo-1,3-thiazolidin-5-yl}-1-pentynyl)-4-methylphenyl]urea]
100 | 8500 | Cc1ccc(S(=O)(=O)C2(CCC/C=C\c3ccc(Cl)cc3)SC(=O)NC2=O)cc1 (stereo not drawn) [Example 217, 5-[(4Z)-5-(4-Chloro-phenyl)pent-4-enyl]-5-(toluene-4-sulfonyl)-thiazolidine-2,4-dione]
90 | 3000 | COc1ccc(S(=O)(=O)C2(CCCC#Cc3cccc(N)c3)SC(=O)NC2=O)cc1 (stereo not drawn) [Example 220, 5-[5-(3-Aminophenyl)pent-4-ynyl]-5-(4-methoxybenzenesulfonyl)-thiazolidine-2,4-dione]
30 to 50 | 100 to 3200 | COc1ccc(S(=O)(=O)C2(CCCC#Cc3cc(NC(=O)OCc4ccccc4)ccc3C)SC(=O)N(C(=O)OCc3ccccc3)C2=O)cc1 (stereo not drawn) [Example 226, Benzyl 5-[5-(5-{[(benzyloxy)carbonyl]-amino}-2-methylphenyl)pent-4-ynyl]-5-[(4-methoxyphenyl)sulfonyl]-2,4-dioxo-1,3-thiazolidine-3-carboxylate]
7 to 10 | 210 to 400 | COc1ccc(S(=O)(=O)C2(CCCC#Cc3cc(NC(=O)OCc4ccc([N+](=O)[O-])cc4)ccc3C)SC(=O)N(C(=O)OCc3ccc([N+](=O)[O-])cc3)C2=O)cc1 (stereo not drawn) [Example 227, 4-Nitrobenzyl 5-[(4-methoxyphenyl)sulfonyl]-5-{5-[2-methyl-5-({[(4-nitrobenzyl)oxy]carbonyl}amino)phenyl]pent-4-ynyl}-2,4-dioxo-1,3-thiazolidine-3-carboxylate]
4 to 70 | 230 to 1000 | COC(=O)Nc1ccc(C)c(C#CCCCC2(S(=O)(=O)c3ccc(OC)cc3)SC(=O)N(C(=O)OC)C2=O)c1 (stereo not drawn) [Example 228, Methyl 5-(5-{5-[(methoxycarbonyl)amino]-2-methylphenyl}pent-4-ynyl)-5-[(4-methoxyphenyl)sulfonyl]-2,4-dioxo-1,3-thiazolidine-3-carboxylate]
6 to 20 | 100 to 700 | COc1ccc(S(=O)(=O)C2(CCCC#Cc3cc(NC(=O)OC(C)C)ccc3C)SC(=O)N(C(=O)OC(C)C)C2=O)cc1 (stereo not drawn) [Example 229, Isopropyl 5-(5-{5-[(isopropoxycarbonyl)-amino]-2-methylphenyl}pent-4-ynyl)-5-[(4-methoxyphenyl)sulfonyl]-2,4-dioxo-1,3-thiazolidine-3-carboxylate]
3 to 3.5 | 20 to 500 | COc1ccc(S(=O)(=O)C2(CCCC#Cc3cc(NC(=O)OCC(C)(C)C)ccc3C)SC(=O)N(C(=O)OCC(C)(C)C)C2=O)cc1 (stereo not drawn) [Example 230, Neopentyl 5-[(4-methoxyphenyl)sulfonyl]-5-[5-(2-methyl-5-{[(neopentyloxy)carbonyl]-amino}phenyl)pent-4-ynyl]-2,4-dioxo-1,3-thiazolidine-3-carboxylate]

SMILES | IC50 (FPTase [1]) [nM] | IC50 (FPTase [2]) [nM]
COc1ccc(S(=O)(=O)C2(CCCC#Cc3cc(NC(=O)Oc4ccc(Cl)cc4)ccc3C)SC(=O)NC2=O)cc1 (stereo not drawn) [Example 177, (3-{5-[5-(4-Methoxybenzenesulfonyl)-2,4-dioxothiazolidin-5-yl]pent-1-ynyl}-4-methylphenyl)carbamic Acid 4-Chloro-phenyl Ester] | 11 to 32 | 86 to 100
CCCCOC(=O)Nc1ccc(C)c(C#CCCCC2(S(=O)(=O)c3ccc(OC)cc3)SC(=O)N(C(=O)OCCCC)C2=O)c1 (stereo not drawn) [Example 231, Butyl 5-(5-{5-[(butoxycarbonyl)amino]-2-methylphenyl}pent-4-ynyl)-5-[(4-methoxy-phenyl)sulfonyl]-2,4-dioxo-1,3-thiazolidine-3-carboxylate] | 10 to 21 | 100 to 1000
